# Assay results taken from paper PMC8802628, “Selective activation of PFKL suppresses the phagocytic oxidative burst” (Cell, 2021).
# Molecular target: T1, PFKL (Homo sapiens, UniProt P17858)
# T1 construct: endogenous in cells; host or cells: THP-1 cell lysate
# T1 sequence (P17858 2-780 limits assumed): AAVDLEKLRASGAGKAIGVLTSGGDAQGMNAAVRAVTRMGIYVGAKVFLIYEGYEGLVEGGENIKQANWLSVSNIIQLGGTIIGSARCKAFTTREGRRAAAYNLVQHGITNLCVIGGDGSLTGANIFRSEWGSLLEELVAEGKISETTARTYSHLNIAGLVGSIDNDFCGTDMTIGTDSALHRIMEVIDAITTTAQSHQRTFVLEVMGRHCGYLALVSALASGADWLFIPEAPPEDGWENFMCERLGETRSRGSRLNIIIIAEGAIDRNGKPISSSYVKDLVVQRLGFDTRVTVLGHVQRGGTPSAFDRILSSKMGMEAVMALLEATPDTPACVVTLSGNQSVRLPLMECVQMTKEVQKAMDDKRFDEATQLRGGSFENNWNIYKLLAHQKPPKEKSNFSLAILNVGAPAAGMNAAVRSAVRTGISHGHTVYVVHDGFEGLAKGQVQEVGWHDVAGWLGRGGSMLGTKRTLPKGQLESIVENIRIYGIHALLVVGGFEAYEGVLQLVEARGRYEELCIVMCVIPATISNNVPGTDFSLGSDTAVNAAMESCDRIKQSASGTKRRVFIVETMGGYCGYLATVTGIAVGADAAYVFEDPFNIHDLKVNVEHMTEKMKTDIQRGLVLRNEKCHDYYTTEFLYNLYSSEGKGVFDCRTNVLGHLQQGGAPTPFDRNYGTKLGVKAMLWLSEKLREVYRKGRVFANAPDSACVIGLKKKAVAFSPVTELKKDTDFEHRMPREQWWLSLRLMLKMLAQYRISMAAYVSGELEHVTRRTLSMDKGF
# Experiment: Photoaffinity labeling pull-down in human blood leukocytes
# Format: binding
# Details: 1 μM probe, competition with 10 μM NA-11
# Method: Buffy coats (100 mL) were diluted with ice-cold water (540 mL) for 30 s to lyse red blood cells. Following addition of 10 x HBSS buffer (50 mL) leukocytes were pelleted for 3 min at 300 x g, then washed twice in D-PBS and resuspended in RPMI medium. Cells (2 × 10^7) were plated on 15-cm dishes in DMSO vehicle, 1 μM PALP1 or 1 μM PALP6 for 30 min at 37°C. For competition, 10 μM NA-11 was added for 15 min, and then 1 μM PALP1 was added for an additional 30 min. To crosslink the photoaffinity probe, cells were UV-irradiated (High intensity mercury spot lamp, 100W, 365 nm, UVP) in RPMI for 5 min on ice. Cells were lysed in 200 μL 10 mM Tris pH 7.5, 150 mM NaCl, 1% NP-40, 2.5 mM MgCl2, 0.5 mM CaCl2, 2% glycerol, 10 μg/mL DNase-I, and 1 x EDTA-free Protease inhibitor cocktail. Lysates from 5 plates for each condition were pooled and incubate 10 min on ice.
# Biotin-DADPS tagging, biotin-streptavidin affinity purification, and on-bead digestion were performed as described ([Hewings et al., 2018]). Briefly, lysates were cleared by centrifugation and the lysate concentration adjusted to 5 mg/mL. Streptavidin Ultralink Resin (100 μL of 50% slurry, Pierce) was washed twice with PBS and mixed with 1 mL of lysate for 30 min at room temperature. […]
# For the classical TPP, quantitative data from each temperature were used to generate a thermal titration curve and calculate a melting point. […]
structure (smiles),measurement,value
CC(=O)Nc1ccc2c(c1)OCc1cc(-c3ccccc3C#CCCCO)nn1C2 [NA-11],photoaffinity labeling / pull-down of PFKL,competed effectively by NA-11
